According to patent US12258344B2, “Azaaromatic amide derivatives for the treatment of cancer” (SHENZHEN FORWARD PHARMACEUTICALS CO., LTD., priority 2019, dated 2025):

What was measured:
Assay type in all cases: cell-based
[1] = tested on: NCI-H1975 (EGFR L858R/T790M double mutant); assay: Test 1: EGFR L858R/T790M (EGFR double mutant) cell proliferation test; conditions: Homo sapiens; NCI-H1975 cells, 72 hours, Cell Titer-Glo
Method: Test 1: EGFR L858R/T790M (EGFR Double Mutant) Cell Proliferation Test
The human lung cell line NCI-H1975 (EGFR L858R/T790M double mutant) was obtained from the American Type Culture Collection. NCI-H1975 cells were cultured in RPMI1640 medium containing 10% fetal bovine serum and 2 mM glutamine. The cells were grown at 37° C. in a humidified incubator with 5% CO2.
(§1) The number of viable cells in the culture was measured according to the protocol described in Promega's Cell Titer-Glo Luminescent cell Viability Assay (Promega catalog number #G7570). 90 μl of cells (8,000 cells/well) were cultured in growth medium in a Corning black transparent bottom 96-well plate, and cultured in a 5% CO2 humidified incubator at 37° C. overnight. The compound serially diluted in 100% DMSO was added to the cells using a pipette, and the cells were incubated for another 72 hours. 100 μl of the mixed Cell Titer-Glo reagent was added to the cells in the 96-well culture plate to lyse the cells and mix gently. Subsequently, the […] was detected on the Envision microplate detector to obtain the data of each compound. Finally, the data was input into a suitable software package (such as Prism) for curve fitting analysis.

BaF3 (EGFR-D770insSVD) = BaF3 (EGFR-D770insSVD) (Homo sapiens, UniProt P00533, DUP768-770, cells depend on it); assay: Test 2: BaF3 (EGFR-D770insSVD) cell proliferation test; conditions: 72 hours, Cell Titer-Glo, read-out: Test 2 - IC50
Method: Test 2: BaF3 (EGFR-D770insSVD) Cell Proliferation Test
BaF3 (EGFR-D770insSVD) was cultured in RPMI1640 medium containing 10% fetal bovine serum and 2 mM glutamine. The cells were grown at 37° C. in a humidified incubator with 5% CO2.
as §1, with “(3,000” for “(8,000”

BaF3 (EGFR-A763insFQEA) = BaF3 (EGFR-A763insFQEA) (Homo sapiens, UniProt P00533, INS763FQEA, cells depend on it); assay: Test 3: BaF3 (EGFR-A763insFQEA) cell proliferation test; conditions: 72 hours, Cell Titer-Glo, read-out: Test 3 - IC50
Method: Test 3: BaF3 (EGFR-A763insFOEA) Cell Proliferation Test
BaF3 (EGFR-A763insFQEA) was cultured in RPMI1640 medium containing 10% fetal bovine serum and 2 mM glutamine. The cells were grown at 37° C. in a humidified incubator with 5% CO2.
as §1, with “(3,000” for “(8,000”

BaF3 (EGFR-V769insASV) = BaF3 (EGFR-V769insASV) (Homo sapiens, UniProt P00533, DUP767-769, cells depend on it); assay: Test 4: BaF3 (EGFR-V769insASV) cell proliferation test; conditions: 72 hours, Cell Titer-Glo, read-out: Test 4 - IC50
Method: Test 4: BaF3 (EGFR-V769insASV) Cell Proliferation Test
BaF3 (EGFR-V769insASV) was cultured in RPMI1640 medium containing 10% fetal bovine serum and 2 mM glutamine. The cells were grown at 37° C. in a humidified incubator with 5% CO2.
as §1, with “(3,000” for “(8,000”

BaF3 (EGFR-N771insH) = BaF3 (EGFR-N771insH) (Homo sapiens, UniProt P00533, INS771H, cells depend on it); assay: Test 5: BaF3 (EGFR-N771insH) cell proliferation test; conditions: 72 hours, Cell Titer-Glo, read-out: Test 5 - IC50
Method: Test 5: BaF3 (EGFR-N771insH) Cell Proliferation Test
BaF3 (EGFR-N771insH) was cultured in RPMI1640 medium containing 10% fetal bovine serum and 2 mM glutamine. The cells were grown at 37° C. in a humidified incubator with 5% CO2.
as §1, with “(3,000” for “(8,000”

BaF3 (EGFR-D770insNPG) = BaF3 (EGFR-D770insNPG) (Homo sapiens, UniProt P00533, INS772GNP, cells depend on it); assay: Test 6: BaF3 (EGFR-D770insNPG) cell proliferation test; conditions: 72 hours, Cell Titer-Glo, read-out: Test 6 - IC50
Method: Test 6: BaF3 (EGFR-D770insNPG) Cell Proliferation Test
BaF3 (EGFR-D770insNPG) was cultured in RPMI1640 medium containing 10% fetal bovine serum and 2 mM glutamine. The cells were grown at 37° C. in a humidified incubator with 5% CO2.
as §1, with “(3,000” for “(8,000”

BaF3 (EGFR-S768I) = BaF3 (EGFR-S768I) (Homo sapiens, UniProt P00533, S768I, cells depend on it); assay: Test 7: BaF3 (EGFR-S768I) cell proliferation test; conditions: 72 hours, Cell Titer-Glo, read-out: Test 7 - IC50
Method: Test 7: BaF3 (EGFR-S768I) Cell Proliferation Test
BaF3 (EGFR-S768I) was cultured in RPMI1640 medium containing 10% fetal bovine serum and 2 mM glutamine. The cells were grown at 37° C. in a humidified incubator with 5% CO2.
as §1, with “(3,000” for “(8,000”

BaF3 (EGFR-L861Q) = BaF3 (EGFR-L861Q) (Homo sapiens, UniProt P00533, L861Q, cells depend on it); assay: Test 8: BaF3 (EGFR-L861Q) cell proliferation test; conditions: 72 hours, Cell Titer-Glo, read-out: Test 8 - IC50
Method: Test 8: BaF3 (EGFR-L8610) Cell Proliferation Test
BaF3 (EGFR-L861Q) was cultured in RPMI1640 medium containing 10% fetal bovine serum and 2 mM glutamine. The cells were grown at 37° C. in a humidified incubator with 5% CO2.
as §1, with “(3,000” for “(8,000”

BaF3 (HER2-A775insYVMA) = BaF3 (HER2-A775insYVMA) (Homo sapiens, UniProt P04626, DUP772-775, cells depend on it); assay: Test 9: BaF3 (HER2-A775insYVMA) cell proliferation test; conditions: 72 hours, Cell Titer-Glo, read-out: Test 9 - IC50
Method: Test 9: BaF3 (HER2-A775insYVMA) Cell Proliferation Test
BaF3 (HER2-A775insYVMA) was cultured in RPMI1640 medium containing 10% fetal bovine serum and 2 mM glutamine. The cells were grown at 37° C. in a humidified incubator with 5% CO2.
as §1, with “(3,000” for “(8,000”

BaF3 (HER2-P780insGSP) = BaF3 (HER2-P780insGSP) (Homo sapiens, UniProt P04626, DUP778-780, cells depend on it); assay: Test 10: BaF3 (HER2-P780insGSP) cell proliferation test; conditions: 72 hours, Cell Titer-Glo, read-out: Test 10 - IC50
Method: Test 10: BaF3 (HER2-P780insGSP) Cell Proliferation Test
BaF3 (HER2-P780insGSP) was cultured in RPMI1640 medium containing 10% fetal bovine serum and 2 mM glutamine. The cells were grown at 37° C. in a humidified incubator with 5% CO2.
as §1, with “(3,000” for “(8,000”

BaF3 (HER2-G776insVC) = BaF3 (HER2-G776insVC) (Homo sapiens, UniProt P04626, cells depend on it, form not given); assay: Test 11: BaF3 (HER2-G776insVC) cell proliferation test; conditions: 72 hours, Cell Titer-Glo, read-out: Test 11 - IC50
Method: Test 11: BaF3 (HER2-G776insVC) Cell Proliferation Test
The engineered cell line BaF3 (HER2-G776insVC) was constructed by the inventor himself (for the method of cell line construction, see Jingrui Jiang et al., Cancer Res. 2005 Oct. 1; 65 (19): 8964-74; Jacqulyne P. Robichaux et al., Nat Med. 2018 May; 24 (5): 638-646). BaF3 (HER2-G776insVC) was cultured in RPMI1640 medium containing 10% fetal bovine serum and 2 mM glutamine. The cells were grown at 37° C. in a humidified incubator with 5% CO2.
as §1, with “(3,000” for “(8,000”

BaF3 (EGFR/D770insSVD) = molecular target: T1, BaF3 (EGFR/D770insSVD) (Homo sapiens, UniProt P00533, cells depend on it, form not given); assay: Test 13: EGFR exon 20 inserted D770insSVD cell proliferation test; conditions: A763insFQEA, V769insASV, D770insSVD (tests 13-15), in words
T1 construct: other: A763insFQEA, V769ins
Method: Test 13: EGFR Exon 20 Inserted D770insSVD Cell Proliferation Test
as §1, with “(3,000” for “(8,000”

BaF3 (EGFR/S768I) = molecular target: T2, BaF3 (EGFR/S768I) (Homo sapiens, UniProt P00533, cells depend on it, form not given); assay: Test 19: EGFR/S768I mutant cell line proliferation test; conditions: EGFR S768I and EGFR L861Q (tests 19-20), in words
T2 construct: other: EGFR S768I and EGFR L8
Method: Test 19: EGFR/S768I Mutant Cell Line Proliferation Test
as §1, with “(3,000” for “(8,000”

BaF3 (HER2-A775insYVMA), sequence (P04626 with tags, fused parts or gaps DUP772-775): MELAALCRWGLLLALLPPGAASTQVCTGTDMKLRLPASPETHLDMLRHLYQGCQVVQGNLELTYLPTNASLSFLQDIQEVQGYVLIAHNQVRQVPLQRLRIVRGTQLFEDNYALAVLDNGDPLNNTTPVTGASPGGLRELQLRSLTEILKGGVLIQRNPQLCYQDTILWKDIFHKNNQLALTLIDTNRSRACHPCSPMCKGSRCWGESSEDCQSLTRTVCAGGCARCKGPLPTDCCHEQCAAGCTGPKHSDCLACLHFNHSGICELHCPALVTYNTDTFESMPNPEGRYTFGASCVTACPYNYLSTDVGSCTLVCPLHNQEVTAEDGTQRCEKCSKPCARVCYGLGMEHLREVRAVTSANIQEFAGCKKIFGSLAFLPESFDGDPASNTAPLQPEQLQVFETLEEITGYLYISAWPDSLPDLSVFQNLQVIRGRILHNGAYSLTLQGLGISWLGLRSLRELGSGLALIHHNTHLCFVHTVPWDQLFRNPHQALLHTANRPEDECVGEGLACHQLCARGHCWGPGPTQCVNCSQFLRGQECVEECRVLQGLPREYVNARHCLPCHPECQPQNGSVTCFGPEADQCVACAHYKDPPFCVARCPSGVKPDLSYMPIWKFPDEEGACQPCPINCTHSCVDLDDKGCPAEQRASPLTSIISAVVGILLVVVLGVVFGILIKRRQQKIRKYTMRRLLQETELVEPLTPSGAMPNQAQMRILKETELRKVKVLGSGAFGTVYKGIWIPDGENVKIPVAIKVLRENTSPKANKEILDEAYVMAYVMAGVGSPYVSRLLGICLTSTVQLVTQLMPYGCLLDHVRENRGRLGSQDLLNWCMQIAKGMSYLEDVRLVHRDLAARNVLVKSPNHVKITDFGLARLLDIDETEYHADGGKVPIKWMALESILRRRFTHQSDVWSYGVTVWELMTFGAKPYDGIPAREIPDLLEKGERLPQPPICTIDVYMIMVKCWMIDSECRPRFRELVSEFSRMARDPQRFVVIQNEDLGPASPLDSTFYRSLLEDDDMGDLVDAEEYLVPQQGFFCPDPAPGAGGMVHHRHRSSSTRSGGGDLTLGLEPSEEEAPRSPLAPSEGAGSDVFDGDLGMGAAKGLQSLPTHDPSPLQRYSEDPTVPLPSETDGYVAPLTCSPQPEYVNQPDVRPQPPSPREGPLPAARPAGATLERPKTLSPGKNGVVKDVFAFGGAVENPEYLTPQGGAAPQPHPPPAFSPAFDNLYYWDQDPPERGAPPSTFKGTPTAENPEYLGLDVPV
BaF3 (HER2-P780insGSP), sequence (P04626 with tags, fused parts or gaps DUP778-780): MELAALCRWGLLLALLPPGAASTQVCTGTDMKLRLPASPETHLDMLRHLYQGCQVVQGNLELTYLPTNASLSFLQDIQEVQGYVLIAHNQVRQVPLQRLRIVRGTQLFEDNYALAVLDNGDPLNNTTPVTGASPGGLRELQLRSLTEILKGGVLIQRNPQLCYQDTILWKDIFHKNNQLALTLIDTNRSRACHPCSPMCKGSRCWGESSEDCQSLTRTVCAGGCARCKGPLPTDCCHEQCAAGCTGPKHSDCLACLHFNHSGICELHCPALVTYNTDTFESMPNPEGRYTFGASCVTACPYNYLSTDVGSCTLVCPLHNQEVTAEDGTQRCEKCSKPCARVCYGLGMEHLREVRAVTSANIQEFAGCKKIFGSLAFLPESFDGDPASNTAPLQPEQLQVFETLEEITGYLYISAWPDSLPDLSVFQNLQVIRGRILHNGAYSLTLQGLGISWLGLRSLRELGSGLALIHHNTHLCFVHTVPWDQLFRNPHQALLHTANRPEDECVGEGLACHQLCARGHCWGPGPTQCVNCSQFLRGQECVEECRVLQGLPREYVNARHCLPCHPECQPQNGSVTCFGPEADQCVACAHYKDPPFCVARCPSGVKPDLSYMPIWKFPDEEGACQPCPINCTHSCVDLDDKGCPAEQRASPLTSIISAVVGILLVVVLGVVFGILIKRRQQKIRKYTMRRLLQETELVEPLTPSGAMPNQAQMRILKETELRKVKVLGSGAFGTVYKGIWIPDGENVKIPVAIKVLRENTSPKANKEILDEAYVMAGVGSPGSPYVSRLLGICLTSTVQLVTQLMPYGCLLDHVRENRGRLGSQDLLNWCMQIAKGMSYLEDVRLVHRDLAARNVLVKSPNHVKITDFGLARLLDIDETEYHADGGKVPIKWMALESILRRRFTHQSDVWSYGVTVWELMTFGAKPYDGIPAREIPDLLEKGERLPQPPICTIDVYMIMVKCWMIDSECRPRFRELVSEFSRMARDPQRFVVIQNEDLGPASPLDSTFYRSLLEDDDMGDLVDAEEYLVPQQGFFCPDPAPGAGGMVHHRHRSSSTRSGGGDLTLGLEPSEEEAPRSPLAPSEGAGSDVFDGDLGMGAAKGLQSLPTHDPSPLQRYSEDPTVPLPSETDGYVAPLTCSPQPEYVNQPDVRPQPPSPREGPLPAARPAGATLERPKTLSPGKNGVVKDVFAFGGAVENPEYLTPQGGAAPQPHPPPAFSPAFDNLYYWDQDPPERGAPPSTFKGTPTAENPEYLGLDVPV
BaF3 (HER2-G776insVC), sequence (P04626 with tags, fused parts or gaps DELINS776-776VC): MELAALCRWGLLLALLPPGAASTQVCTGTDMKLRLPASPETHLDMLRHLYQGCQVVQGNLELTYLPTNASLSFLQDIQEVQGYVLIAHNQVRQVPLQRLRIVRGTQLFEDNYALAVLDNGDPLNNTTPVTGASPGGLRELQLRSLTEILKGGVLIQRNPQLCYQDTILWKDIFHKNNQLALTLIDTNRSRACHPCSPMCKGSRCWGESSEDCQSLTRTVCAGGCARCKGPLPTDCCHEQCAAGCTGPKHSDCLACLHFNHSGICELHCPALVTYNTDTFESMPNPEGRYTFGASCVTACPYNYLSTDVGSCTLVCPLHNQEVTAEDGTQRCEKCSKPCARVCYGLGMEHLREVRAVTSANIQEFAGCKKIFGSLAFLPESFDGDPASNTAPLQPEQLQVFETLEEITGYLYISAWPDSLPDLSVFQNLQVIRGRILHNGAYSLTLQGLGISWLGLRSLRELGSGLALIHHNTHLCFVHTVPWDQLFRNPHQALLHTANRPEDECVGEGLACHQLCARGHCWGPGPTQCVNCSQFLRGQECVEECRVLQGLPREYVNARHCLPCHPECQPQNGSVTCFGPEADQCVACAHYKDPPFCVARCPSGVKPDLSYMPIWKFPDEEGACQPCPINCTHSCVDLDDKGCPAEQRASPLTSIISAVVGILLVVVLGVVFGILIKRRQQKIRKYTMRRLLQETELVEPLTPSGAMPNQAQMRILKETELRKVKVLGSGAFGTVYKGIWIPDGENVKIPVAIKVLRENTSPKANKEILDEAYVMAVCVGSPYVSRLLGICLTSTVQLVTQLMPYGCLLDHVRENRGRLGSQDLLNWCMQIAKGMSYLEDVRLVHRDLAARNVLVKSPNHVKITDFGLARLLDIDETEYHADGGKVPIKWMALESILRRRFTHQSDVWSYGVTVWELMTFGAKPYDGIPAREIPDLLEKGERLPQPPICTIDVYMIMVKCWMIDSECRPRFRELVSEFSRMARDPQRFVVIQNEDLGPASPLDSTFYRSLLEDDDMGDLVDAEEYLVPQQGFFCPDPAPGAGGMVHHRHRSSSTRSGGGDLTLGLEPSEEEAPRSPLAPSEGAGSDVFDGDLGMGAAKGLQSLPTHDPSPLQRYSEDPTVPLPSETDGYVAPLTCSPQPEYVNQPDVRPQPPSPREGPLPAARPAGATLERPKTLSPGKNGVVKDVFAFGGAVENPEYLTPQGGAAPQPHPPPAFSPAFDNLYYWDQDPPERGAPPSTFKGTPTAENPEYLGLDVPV

IC50 [1]	GI50 (BaF3 (EGFR-D770insSVD))	GI50 (BaF3 (EGFR-A763insFQEA))	GI50 (BaF3 (EGFR-V769insASV))	GI50 (BaF3 (EGFR-N771insH))	GI50 (BaF3 (EGFR-D770insNPG))	GI50 (BaF3 (EGFR-S768I))	GI50 (BaF3 (EGFR-L861Q))	GI50 (BaF3 (HER2-A775insYVMA))	GI50 (BaF3 (HER2-P780insGSP))	GI50 (BaF3 (HER2-G776insVC))	SMILES	cell activity compared with Osimertinib (AZD9291) against EGFR exon 20 insertion mutations (BaF3 (EGFR/D770insSVD))	activity compared with Osimertinib (AZD9291) against EGFR S768I and EGFR L861Q mutations (BaF3 (EGFR/S768I))
42.1 nM	88.7 nM	43.1 nM	88.6 nM	35.6 nM	40.9 nM	13.6 nM	10.8 nM	85.2 nM	29.6 nM	8.36 nM	C=CC(=O)Nc1cc(Nc2ncnc(Oc3ccc(Cl)c(OC)c3)n2)c(OC(F)F)cc1N(C)CCN(C)C [Example 13]		
39.6 nM	30 nM	16.6 nM	57.6 nM	18.2 nM	22.8 nM	7.82 nM	5.82 nM	21.8 nM	11.6 nM	2.73 nM	C=CC(=O)Nc1cc(Nc2ncnc(-c3cn(C)c4ccc(OC)cc34)n2)c(OC)cc1N(C)CCN(C)C [Example 8, N-(2-((2-(dimethylamino)ethyl)(methyl)amino)-4-methoxy-5-((4-(5-methoxy-1-methyl-1H-indol-3-yl)-1,3,5-triazin-2-yl)amino)phenyl)acrylamide]		
66.3 nM	183 nM	57.3 nM	121 nM	82.5 nM	75.3 nM	29.4 nM	17.2 nM	98.2 nM	47.8 nM	11.4 nM	C=CC(=O)Nc1cc(Nc2ncnc(Oc3ccc(Cl)c(OC)c3)n2)c(OC)cc1N(C)CCN(C)C [Example 12]		
183 nM	566 nM	183 nM	466 nM	146 nM	181 nM	44.5 nM	36.1 nM	45.2 nM	32.6 nM	9.56 nM	C=CC(=O)Nc1cc(Nc2ncnc(-c3cn(C)c4cc(Cl)c(OC)cc34)n2)c(OC)cc1N(C)CCN(C)C [Example 10]	significant superior cell activity over Osimertinib (AZD9291)	
											C=CC(=O)Nc1cc(Nc2nccc(-c3cn(C)c4ccccc34)n2)c(OCC(F)(F)F)nc1N(C)CCN(C)C.CS(=O)(=O)O [Compound 31]		superior activity over Osimertinib (AZD9291)
											C=CC(=O)Nc1cc(Nc2nccc(-c3cn(C)c4ccccc34)n2)c(OCC(F)(F)F)nc1N(C)CCN(C)C.Cl [Compound 32]		superior activity over Osimertinib (AZD9291)
15.3 nM	48.7 nM	14.3 nM	45.5 nM	15.3 nM	12.8 nM	9.17 nM	5.01 nM	13.9 nM	7.59 nM	1.8 nM	C=CC(=O)Nc1cc(Nc2ncnc(-c3cn(C)c4ccc(Cl)cc34)n2)c(OC)cc1N(C)CCN(C)C [Example 9]		
